The nature of this series: Lipophilicity, log P of the compound. To be noted: octanol/water. The series is classed as physicochemical.

Bounds are passed on as bounds.

For `CC1(C)C(C=C(Cl)Cl)C1C(=O)OCc1cccc(Oc2ccccc2)c1` (stereo unspecified) [PERMETHRIN], the logP is more than 5.

The compound `CN(C/C=C/C#CC(C)(C)C)Cc1cccc2ccccc12` [TERBINAFINE] registered a logP of more than 5.

Compound `Nc1nc2c(ncn2COCCO)c(=O)[nH]1` [ACYCLOVIR] showed a logP of 1 to 4.

`Clc1ccc(COC(Cn2ccnc2)c2ccc(Cl)cc2Cl)c(Cl)c1` (stereo unspecified) [MICONAZOLE] displayed a lipophilicity (logP) of more than 5.

As to `NC(N)=O` [UREA], the logP fell in the range of 1 to 4.

`O=c1[nH]cc(F)c(=O)[nH]1` [FLUOROURACIL] came in with a lipophilicity (logP) of 1 to 4.

What is called logP is a log measure of how a compound divides between an organic and an aqueous phase. A low value points to a more hydrophilic compound.

The values above are taken from ChEMBL document CHEMBL4622856, “Essential Medicinal Chemistry of Essential Medicines” (J Med Chem, 2020).
